Entries after “also recorded” stand apart in the source; their conditions may differ.
Legend:
[1] = test system: Wnt signaling target genes CCND1, MYC, CTNNB1; test: qRT-PCR of downstream Wnt signaling target genes in ABSCs; type: cell-based, human; conditions: ABSCs under ALI conditions
Method: (§1) RNA was isolated with the RNeasy Mini Kit (Qiagen 74104) following manufacturer's protocol and quantified using a NanoDrop Spectrophotometer (ThermoFisher). cDNA synthesis was performed using the TaqMan Reverse Transcription Reagents (ThermoFisher) as indicated by the company. qPCR was then performed using the TaqMan PCR Master Mix (Applied Biosystems) on the StepOne-Plus Real Time PCR System.
(§2) To assess whether WIC1 could reverse Wnt/β-catenin-induced ABSC hyperproliferation, human ABSCs were treated with either DMSO, CHIR, or CHIR+WIC1. […] It was then sought to determine if WIC1 could promote ABSC differentiation to ciliated cells under ALI conditions.

BEAS2B cells [2] = test: Cell Titer Glo toxicity assay in BEAS2B cells; type: cell-based, human
Method: (§3) For luciferase reporter assays conducted outside of the high-throughput drug screen, BEAS2B cells were seeded in a 96-well plate at 20,000 cells per well. The following day, cells were with treated DMSO, 5 μM CHIR99021 (CHIR; Tocris 4423), or 5 μM CHIR plus WIC2 (Key Organics GP-0355), Coumarin (Sigma C4261), or WIC1 for 24 hours. Lysis reactions were conducted using BrightGlo (Promega E1910) and incubated for two minutes at room temperature prior to transferring luminescence reactions to white-bottom, white-walled 96-well plates (Costar). Toxicity assays were conducted by adding Cell Titer Glo reagent (Promega) following manufacturer's protocol. Luminescence readings were conducted using the Clariostar plate reader.

human ABSCs [3] = test: Air-liquid interface (ALI) differentiation assay with human ABSCs; type: cell-based
Method: (§4) 24-well 6.5 mm transwells with 0.4 μm pore polyester membrane inserts were coated with 0.2 mg/mL collagen type I dissolved in 60% ethanol and allowed to air dry. ABSCs were seeded at 100,000 cells per well and allowed to grow in the submerged phase of culture for 4-5 days with 500 μl media in the basal chamber and 200 μl media in the apical chamber. ALI cultures were then established and culture with only 500 μl media in the basal chamber, and cultures harvested at varying timepoints for immunofluorescence studies. Media was changed every other day and cultures were maintained at 37° C. and 5% C02. ABSCs were treated with the indicated concentrations of GSK3XV (Sigma 361558), CHIR or WIC1.
(§5) Mouse and human ABSCs were fixed in […] for 15 minutes followed by permeabilization with 0.50% Triton-X for 10 minutes. Cells were blocked using serum-free protein block (Dako X090930) for one hour at room temperature and overnight primary antibody incubation. Secondary antibodies were incubated for 1 hour in darkness, washed, and mounted using Vectashield hardest mounting medium with DAPI (Vector Labs H-1500). IF images were obtained using an LSM780 or LSM880 Zeiss confocal microscope and composite images generated using Fiji.
as §2

mouse ABSCs (mABSCs) [4] = test: EdU proliferation assay in mouse ABSCs, submerged culture; type: cell-based; conditions: 1 μM CHIR + 1 μM inhibitor, submerged culture 4 days
Method: (§6) Mouse and human ABSCs were isolated following a previously published method. Briefly, mouse tracheas were dissected, cleaned, and incubated in 16 U/mL dispase for 30 minutes (1 hour for human) at room temperature. Tracheas were then incubated in 0.5 mg/mL DNase for another 30 minutes (1 hour for human) at room temperature. Epithelium was stripped and incubated in 0.1% Trypsin-EDTA for 30 minutes (1 hour for human) shaking at 37° C. to generate a single cell suspension. Isolated cells were passed through a 40 μm strainer and stained with fluorophore-conjugated antibodies against ITGA6 and TROP2. ITGA6+ TROP2+ cells were obtained via FACS that was completed using the BD FACSAria cell sorter.
(§7) In vitro proliferation was studied using the Click-iT EdU incorporation assay kit (Invitrogen C10337) following the company's protocol. Briefly, mouse and human AB SC cultures were treated with 10 μM EdU 6-8 hours prior to commencing IFs. Cells were fixed with […] for 15 minutes followed by permeabilization in 0.5% Triton-X for 20 minutes. EdU cocktail was incubated for 30 minutes in darkness followed by immunocytochemistry.
(§8) To determine whether the pathobiology observed in human patients can be modeled in vitro, mouse ABSCs (mABSCs) were treated with GSK3β inhibitor CHIR99021 (CHIR) under submerged culture conditions for 4 days to activate canonical Wnt signaling (FIG. 2A).

mouse ABSCs (mABSCs) [5] = test: Air-liquid interface (ALI) differentiation assay with mouse ABSCs; type: cell-based; conditions: mABSCs, ALI
Method: as §4
Mouse ABSCs were grown in MTEC Plus media and MTEC serum-free media during the submerged and ALI phases of culture, respectively. MTEC base media is DMEM/Ham's F12 50/50 (Corning 15090CV). Table S1 and Table S2 indicate the media components and concentrations for MTEC Plus and MTEC serum-free media, respectively.
as §5, with “Fiji. […]” for “Fiji.”

TP63 = test: qRT-PCR of TP63 expression in BEAS2B cells; type: cell-based, human; conditions: CHIR plus WIC1
Method: as §1

p-β-catenin^Y489 = test: Immunofluorescence staining of phosphorylated β-catenin localization in ABSCs; type: cell-based, mouse; conditions: WIC1 added to CHIR-treated cultures
Method: as §5, §8

BEAS2B cells [6] = test: Hoechst stain toxicity assay (nuclei count) in BEAS2B cells; type: cell-based, human; conditions: CHIR+10 uM compound, 24 hours
Trp63 = Trp63 expression with CHIR and WIC1 treatment (FIG. 4F); type: cell-based; conditions: WIC1 treatment of CHIR-induced expression
Method: as §1

human ABSCs [7] = test: Proliferation of human ABSCs treated with DMSO, CHIR or CHIR+WIC1; type: cell-based; conditions: CHIR+WIC1 vs CHIR
Method: as §6, §7, §2

[8] = test system: TCF/LEF luciferase reporter; test: TCF/LEF luciferase reporter assay in transduced BEAS2B cells (CHIR-induced); type: cell-based, human
Method: BEAS2B cells (ATCC CRL-9609) were seeded in a 6-well plate and infected with Cignal lentiviral particles containing a TCF/LEF luciferase reporter (Qiagen CLS-018L). Cells were spin infected at 37° C. for one hour using a multiplicity of infection of 20. Cells were selected with 0.6 μg/mL puromycin to isolate stably expressing clones.
as §3
In light of the finding that Wnt/β-catenin signaling drives ABSC hyperproliferation, a small molecule inhibitors of the pathway that could restore airway homeostasis. A high-throughput drug screen was established to identify compounds capable of reducing TCF/LEF activity measured by a luciferase reporter induced by CHIR treatment in a 384-well format (FIG. 3A). Briefly, white-bottom 384-well plates (Greiner One) were precoated overnight with 0.01 mg/mL fibronectin from human plasma (Sigma F0895), 0.03 mg/mL rat tail collagen type I (Corning 354249), and 0.01 mg/mL BSA (ThermoFisher BP-9706) diluted in 50 uL of Airway Epithelial Cell Growth Medium (PromoCell C21060). Precoat was then aspirated and washed using 100 μL the BioTek EL406. A custom V&P pin tool mounted to a Beckman FX liquid handler was then used to pin […] of 10 mM stock compound. 2,000 BEAS2B cells per well were then seeded using the Multidrop. Cells were therefore treated with 1% DMSO, 5 μM CHIR, or 5 μM CHIR+10 μM pinned compound and incubated for 24 hours at 37° C. and 5% CO2. […] 25 μL BrightGlo (Promega) was subsequently added to each well using the BioTek EL405 and incubated for 2 minutes prior reading luminescence values with the Envision plate reader (FIG. 3B). […] Z′ factor values were used to assess assay quality and was calculated by: Z′=1-3(SD Total+SDBackground)/(MeanTotal−MeanBackground) where SDTotal and MeanTotal are the standard deviation and mean of signal for CHIR-treated wells, and SDBackground and MeanBackground are the standard deviation and mean of signal for DMSO-treated wells. The Z′ factor value was calculated to be 0.82.

CCN1CCN(c2ccc(NC(=O)c3cc4ccccc4oc3=O)cc2)CC1 [WIC1]
mRNA expression of downstream Wnt signaling target genes (CCND1, MYC, CTNNB1) [1]: decreased mRNA expression
Toxicity by Cell Titer Glo (BEAS2B cells [2]; 10 μM): non-toxic
Toxicity by Cell Titer Glo (BEAS2B cells [2]; various concentrations): minimal toxicity at each concentration
Ciliated cell differentiation (human ABSCs [3]; ABSCs, ALI, 100 nM vs DMSO): significantly induced ciliated cell differentiation; also recorded: increased differentiation to ciliated cells
Ciliated cell differentiation (human ABSCs [3]; in vitro, concentration not given): promoted ciliated cell differentiation
mABSC proliferation (EdU incorporation) (mouse ABSCs (mABSCs) [4]): decreased mABSC proliferation to a similar degree
Proportion of ciliated cells (mouse ABSCs (mABSCs) [5]; 100 nM inhibitor vs DMSO): induced a greater proportion of ciliated cells
Percentage of ciliated cells (mouse ABSCs (mABSCs) [5]; 1 μM inhibitor vs DMSO): no effect on the percentage of ciliated cells
TP63 expression (TP63): reduced
Nuclear localization of p-β-catenin^Y489 (p-β-catenin^Y489): decreased the nuclear localization
Toxicity by Hoechst stain (BEAS2B cells [6]): no toxicity; also recorded: minimal toxicity
Trp63 expression (Trp63): substantially reversed
Human ABSC proliferation (human ABSCs [7]): significant reduction in ABSC proliferation; also recorded: reduced Wnt/β-catenin-driven human ABSC hyperproliferation
TCF/LEF activity, inhibitor comparison ([8]; 100 nM and 1 μM, WIC1, MSAB, LF3, ICG001 compared): most potent inhibitor
TCF/LEF luciferase reporter activity ([8]; CHIR-induced reporter, single treatment vs CHIR): decreased TCF/LEF luciferase reporter activity; also recorded: decreases TFC/LEF luciferase reporter activity; also recorded: suppressed TCF/LEF activity
TCF/LEF luciferase reporter activity, dose course ([8]; CHIR-induced reporter, various concentrations): stepwise decrease in TCF/LEF activity; also recorded: Higher concentrations of WIC1 decrease TFC/LEF luciferase reporter activity to a greater extent

— patent US12508243B2, “Compositions and methods for treating cancer and improving epithelial homeostasis” (The Regents of the University of California, priority 2019, dated 2025)
